This note sets out measurements from ChEMBL document CHEMBL5113463, “Discovery and preclinical evaluations of JBD0131, a novel nitrodihydro-imidazooxazole anti-tuberculosis agent” (Bioorg Med Chem Lett, 2022).

Values after ≈ are worked out from the molar mass of the structure shown.

The experiment has as its system Mycobacterium tuberculosis. Briefly: Antimycobacterial activity against clinical isolate multidrug resistant Mycobacterium tuberculosis H37Rv assessed as bacterial growth inhibition. In kind it is functional.

A word on the MIC50: it is the lowest concentration that inhibits either 50% of growth or 50% of the strains tested, depending on the study. A word on the MIC90: it is the lowest concentration that inhibits either 90% of growth or 90% of the strains tested, depending on the study. As for `CO[C@H]1/C=C/O[C@@]2(C)Oc3c(C)c(O)c4c(O)c(c(/C=N/N5CCN(C)CC5)c(O)c4c3C2=O)NC(=O)/C(C)=C\C=C\[C@H](C)[C@H](O)[C@@H](C)[C@@H](O)[C@@H](C)[C@H](OC(C)=O)[C@@H]1C` [RIFAMPIN], the MIC50 is more than 40 µg/mL and the MIC90 is more than 40 µg/mL.

With `NC[C@H]1O[C@H](O[C@H]2[C@H](O)[C@@H](O[C@H]3O[C@H](CO)[C@@H](O)[C@H](N)[C@H]3O)[C@H](N)C[C@@H]2N)[C@H](O)[C@@H](O)[C@@H]1O` [KANAMYCIN], the MIC50 was found to be 1.24 µg/mL (≈ 2.55 µM) and the MIC90 is more than 40 µg/mL.

For the compound `NNC(=O)c1ccncc1` [ISONIAZID], the MIC50 was 4.37 µg/mL (≈ 31.9 µM) and the MIC90 was more than 40 µg/mL.

On to `C[C@]1(CN2Cc3nc(-c4ccc(F)cc4)sc3C2)CN=C(N)O1`, for which the MIC50 stood at 0.011 µg/mL (≈ 0.0331 µM) and the MIC90 worked out at 0.035 µg/mL (≈ 0.105 µM).

For `C[C@]1(COc2ccc(N3CCC(Oc4ccc(OC(F)(F)F)cc4)CC3)cc2)Cn2cc([N+](=O)[O-])nc2O1`, the MIC50 is 0.002 µg/mL (≈ 0.00374 µM) and the MIC90 is 0.003 µg/mL (≈ 0.00561 µM).
